{"source": "patent US20170119020A1", "about": "“METHOD OF FEEDING AN ANIMAL” (CARGILL, INCORPORATED, priority 2014, published 2017)", "key": {"[1]": {"tested_on": "eggs and hatched chickens of Cobb broiler breeders", "test": "Hatchability, fertility and chick quality of eggs of Example 1 (Example 2)", "format": "in vivo, chicken", "method": "The eggs were stored based on breeder pen and storage day. Eggs were allocated to twelve trays and nine blocks, with each block representing a storage day. At E17, all eggs were candled and at E18, eggs were transferred from the incubator […] to […] baskets. […] (64.4° F.) and a relative humidity of 75%. At the start of the incubation period, the eggs were weighed and allocated into blocks, each block representing a storage day. Each block consisted of twelve experimental units, with each experimental unit indicating a group of ten eggs. Only intact eggs were included; cracked, dirty, or eggs with deformed shells were excluded from the experiment. The eggs were placed in a NatureForm NMC 2340 Incubator with automatic control of temperature and relative humidity. From E0 until E18, the eggs were placed in setter trolleys, which consist of two shelves with a capacity for thirteen trays each. Each tray has three flats of thirty eggs. During this period, the incubator start temperature was set to 37.5° C. and relative humidity to 54%. […] After the setter period (E0-E18), eggs were transferred to baskets in the […] based on the blocking structure in the setter. The eggs were placed into subdivisions of a hatching crate, per replicate, and following tray order per block. Each […] trolley has twelve baskets with a capacity for 180 eggs each. […] Egg weights were recorded per experimental unit at E0. At hatch (E21) the number of dead chickens, dead embryos and […] (internal and external) were recorded. Remaining non-hatched eggs were opened to determine age and cause of death. The number of hatched chickens was recorded per replicate, as well as average chick weight. Sex was determined by cloaca sexing, performed by a professional chicken-sexer. Hatchability was calculated as percentage of total and of fertile eggs (eggs which contained living embryos after E17). […] Only chickens with an average body weight, completely dry, showing active movement and with a good navel score were selected. […] Sample chickens were individually weighed and killed by cervical dislocation to measure remaining yolk-sac weights, yolk-free body mass (“YFBM”), chick length, and shank length of both shanks. Relative asymmetry was calculated according to the following formula: RA=(|L-R|/[(L+R)/2])×100."}, "sows and piglets": {"tested_on": "sows and piglets", "test": "Total antioxidant status (TAS) in serum of sows and piglets (Example 10)", "format": "in vivo, pig", "details": "for Total antioxidant status (TAS) in serum of piglets: piglets at 21 days", "source_text": "The performance following criteria were monitored during the trial: (i) Sows response criteria (actual parity, farrowing rate, culled sows—number and reasons, wean-to-mating interval, farrowing rate in the next cycle); (ii) litter response criteria (number of piglets, total, alive, stillborn, mummies; weight of piglets and litters; survival). The following biochemical (blood) criteria were monitored during the trial for the sows (mating, farrowing and weaning), piglets 21st day: (i) glutathione peroxidase (GPx) activity; (ii) superoxide dismutase (SOD) activity; (iii) total antioxidant status (TAS); (iv) vitamin E content; (v) vitamin A content.\nTo determine the oxidative status, the blood samples were collected from sows and piglets into tubes with lithium anticoagulant—received whole blood for analysis. At the same time blood samples were taken for blood clot. They were centrifuged (1500 rpm, 15 Temp. 4° C.) and obtained serum was pipetted into separate tubes.\nIn studies of oxidative status of sows and piglets were used suitable to each of the indicators, the reagent kits from Sigma-Aldrich. Determination was made in accordance with the descriptions of the rules and procedures specified by the manufacturer.\nThe content of the TAS (total antioxidant status) were determined using the Antioxidant assay kit (Cat. No CS0790), the activity of SOD (superoxide dismutase) was determined using SOD determination kit 19160, the activity of GPx (glutathione Peroxide assai Cellular Activity Kit) Cat. No CGP1. The content of vitamins A and E by McMurray and Blanchflower 1979 (Journal of Chromatography 178, 525-531.). TAS\nSerum samples (10 ul) in duplicate were incubated at room temperature for 5 minutes with the working solution of ABTS (2,2-azino-bis (3-ethylbenzthiazoline-6-sulfonic acid) (150 pl) and the solution with myoglobin (20 pl). Simultaneously the calibration curve was performed based on serial dilutions of Trolox equivalent in the range of 0.015 to 0.42 mM (mmol).\nThe formed a ferryl radical from myoglobin and hydrogen peroxide causes oxidation of ABTS and production of radical cation ABTS*. The resulting chromogen has a blue-green color. In the presence of antioxidants the radical cation is suppressed to an extent dependent on the activity of the antioxidant and the color intensity is decreased proportionally. The color was measured with a spectrophotometer at a wavelength of 405 nm."}, "[2]": {"details": "eggs of 28-29 week breeders of Example 1"}}, "note": "Marks after values point to notes of the source that are not given here."}
{"smiles": "Cc1c(C)c2c(c(C)c1O)CCC(C)(CCCC(C)CCCC(C)CCCC(C)C)O2", "note": "(racemic) [Vitamin E, DL-α-tocopherol]", "values": [{"measurement": "Chick Weight", "setting": "[1]; at hatch", "result": 42.4, "unit": "g"}, {"measurement": "Chick Weight", "setting": "[1]; dissected chickens", "result": 41.3, "unit": "g"}, {"measurement": "Chick length", "setting": "[1]; dissected chickens", "result": 17.9, "unit": "cm"}, {"measurement": "Relative Assymetrie (shank)", "setting": "[1]; dissected chickens", "result": 1.59}, {"measurement": "YFBM (yolk free body mass)", "setting": "[1]; dissected chickens", "result": 36.2, "unit": "g"}, {"measurement": "Yolk weight", "setting": "[1]; dissected chickens", "result": 4.92, "unit": "g"}, {"measurement": "Relative Chick Weight^1", "setting": "[1]; dissected chickens, expressed as percentage of average egg weight", "result": 70.7, "unit": "%"}, {"measurement": "Relative Chick Weight^2", "setting": "[1]; dissected chickens, expressed as percentage of chick weight", "result": 11.8, "unit": "%"}, {"measurement": "Fertility", "setting": "[1]; [2]", "result": 92.6, "unit": "%"}, {"measurement": "Hatchability of fertile", "setting": "[1]; [2]", "result": 95.6, "unit": "%"}, {"measurement": "Hatchability of total", "setting": "[1]; [2]", "result": 88.6, "unit": "%"}, {"measurement": "Relative chick weight", "setting": "[1]; expressed as percentage of average egg weight", "result": 72.5, "unit": "%"}, {"measurement": "Total antioxidant status (TAS) in serum of sows", "setting": "sows and piglets; Breeding, Group 2: vitamin E 50/75 mg/kg diet", "result": 1.26, "unit": "mmol/L"}, {"measurement": "Total antioxidant status (TAS) in serum of sows", "setting": "sows and piglets; Breeding, Group 3: vitamin E 100/150 mg/kg diet", "result": 1.29, "unit": "mmol/L"}, {"measurement": "Total antioxidant status (TAS) in serum of sows", "setting": "sows and piglets; Farrowing, Group 2: vitamin E 50/75 mg/kg diet", "result": "1.18^a mmol/L"}, {"measurement": "Total antioxidant status (TAS) in serum of sows", "setting": "sows and piglets; Farrowing, Group 3: vitamin E 100/150 mg/kg diet", "result": "1.19^a mmol/L"}, {"measurement": "Total antioxidant status (TAS) in serum of sows", "setting": "sows and piglets; Weaning, Group 2: vitamin E 50/75 mg/kg diet", "result": "1.18^B mmol/L"}, {"measurement": "Total antioxidant status (TAS) in serum of sows", "setting": "sows and piglets; Weaning, Group 3: vitamin E 100/150 mg/kg diet", "result": "1.20^Ba mmol/L"}, {"measurement": "Total antioxidant status (TAS) in serum of piglets", "setting": "sows and piglets; Group 2: vitamin E 50/75 mg/kg sow diet", "result": "1.16^B mmol/L"}, {"measurement": "Total antioxidant status (TAS) in serum of piglets", "setting": "sows and piglets; Group 3: vitamin E 100/150 mg/kg sow diet", "result": "1.18^A mmol/L"}]}
